What all share (type): in vivo
The test system of assay [1] is rice (Oryza sativa). In words: Postemergence herbicidal activity, selectivity to rice. Particulars: Table 3; crop (rice); rate 250 ppm. How it is done: Seeds of the desired test plant species were planted in Grace-Sierra MetroMix® 306 planting mixture, which typically has a pH of 6.0 to 6.8 and an organic matter content of about 30 percent, in plastic pots with a surface area of 64 square centimeters. When required to ensure good germination and healthy plants, a fungicide treatment and/or other chemical or physical treatment was applied. The plants were grown for 7-21 days in a greenhouse with an approximate 15 hr photoperiod which was maintained at about 23-29° C. during the day and 22-28° C. during the night. Nutrients and water were added on a regular basis and supplemental lighting was provided with overhead metal halide 1000-Watt lamps as necessary. The plants were employed for testing when they reached the first or second true leaf stage.
A weighed amount, determined by the highest rate to be tested, of each test compound was placed in a 20 mL glass vial and was dissolved in 4 mL of a 97:3 v/v (volume/volume) mixture of acetone and dimethyl sulfoxide (DMSO) to obtain concentrated stock solutions. […] The concentrated stock solutions obtained were diluted with an aqueous mixture containing acetone, water, isopropyl alcohol, DMSO, Atplus 411F crop oil concentrate, and Triton X-155 surfactant in a 48.5:39:10:1.5:1.0:0.02 v/v ratio to obtain spray solutions of known concentration. The solutions containing the highest concentration to be tested were prepared by diluting 2 mL aliquots of the stock solution with 13 mL of the mixture and lower concentrations were prepared by serial dilution of the stock solution. […]
The treated plants and control plants were placed in a greenhouse as described above and watered by sub-irrigation to prevent wash-off of the test compounds. After 2 weeks the condition of the test plants as compared with that of the untreated plants was determined visually and scored on a scale of 0 to 100 percent where 0 corresponds to no injury and 100 corresponds to complete kill.

Assay [2] has as its system velvetleaf (Abutillon theophrasti). The assay is described as follows: Postemergence herbicidal activity. The following applies: Abutilon theophrasti, post-emergence, 336 h, Table 2, rate 125 ppm, after 2 weeks, read-out: POSTMERGENCE HERBICIDAL ACTIVITY % CONTROL ABUTH. The gist of the method: (§1)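 Foliar spray at 1st–2nd true leaf; 1 ppm ≈ 1 g/Ha. Carrier: acetone/water/IPA/DMSO plus crop oil concentrate and Triton X-155. Greenhouse, sub-irrigated. Visual rating vs untreated at 2 wk, 0 = no injury, 100 = complete kill.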

In assay [3] the test system is Rox orange sorghum (sorghum bicolor). The assay is described as follows: Postemergence herbicidal activity. Particulars: post-emergence, 336 h. The gist of the method: as §1
Assay [4] concerns lambsquarters (Chenopodium album). In words: Postemergence herbicidal activity. Particulars: for inhibition at 125 ppm: Chenopodium album, post-emergence, 336 h, Table 2, rate 125 ppm, after 2 weeks, read-out: POSTMERGENCE HERBICIDAL ACTIVITY % CONTROL CHEAL. The essentials: as §1
In assay [5] the test system is wild oats (Avena fatua). In words: Postemergence herbicidal activity. The following applies: post-emergence, 336 h. The essentials:
as §1

For assay [6], the system named is crabgrass (Digitaria sanguinalis). The assay is described as follows: Postemergence herbicidal activity. The following applies: post-emergence, 336 h. The gist of the method: as §1
In assay [7] the test system is pigweed (Amaranthus retroflexus). The assay is described as follows: Postemergence herbicidal activity. Particulars: Amaranthus retroflexus, post-emergence, 336 h, Table 2, rate 125 ppm, after 2 weeks, read-out: POSTMERGENCE HERBICIDAL ACTIVITY % CONTROL AMARE. The essentials: as §1
Assay [8] has as its system blackgrass (Alopecurus myosuroides). The assay is described as follows: Postemergence herbicidal activity. The following applies: post-emergence, 336 h. The essentials: as §1
The test system of assay [9] is barnyardgrass (Echinochloa crus-galli). The assay is described as follows: Postemergence herbicidal activity. Particulars: for inhibition at 125 ppm: Echinochloa crus-galli, post-emergence, 336 h, Table 2, rate 125 ppm, after 2 weeks, read-out: POSTMERGENCE HERBICIDAL ACTIVITY % CONTROL ECHCG; for post emergent evaluation - % control ECHCG: Table 3, weeds in rice, rate 250 ppm. The gist of the method: as §1

The test system of assay [10] is giant foxtail (Setaria faberi). The assay is described as follows: Postemergence herbicidal activity. The following applies: post-emergence, 336 h. The essentials: as §1
In assay [11] the test system is viola (Viola tricolor). In words: Postemergence herbicidal activity. Particulars: post-emergence, 336 h. The essentials:
as §1

The subject of assay [12] is White Clover (Trifolium repens). The assay is described as follows: Range & Pasture Crop Testing (postemergence track sprayer). The following applies: Table 10. The gist of the method: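 Postemergence track-sprayer application at 187 L/ha, compounds formulated in 97:3 acetone:DMSO with 0.25% X-77, five rates (X serially diluted to 1/16×). Visual percent control (0–100 scale, burn down) rated 3 weeks after treatment; GR50/GR80 derived by probit analysis.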

[13] abbreviates: Table 2, rate 125 ppm, after 2 weeks, read-out: POSTMERGENCE HERBICIDAL ACTIVITY % CONTROL SORBI.
The mark [14] stands for this setting: Table 2, rate 125 ppm, after 2 weeks, read-out: POSTMERGENCE HERBICIDAL ACTIVITY % CONTROL AVEFA.
[15] abbreviates: Table 2, rate 125 ppm, after 2 weeks, read-out: POSTMERGENCE HERBICIDAL ACTIVITY % CONTROL DIGSA.
Where [16] appears, read: Table 2, rate 125 ppm, after 2 weeks, read-out: POSTMERGENCE HERBICIDAL ACTIVITY % CONTROL ALOMY.
[17] abbreviates: Table 2, rate 125 ppm, after 2 weeks, read-out: POSTMERGENCE HERBICIDAL ACTIVITY % CONTROL SETFA.
[18] abbreviates: Table 2, rate 125 ppm, after 2 weeks, read-out: POSTMERGENCE HERBICIDAL ACTIVITY % CONTROL VIOTR.

Results on five molecules are retold here after patent publication US20010047099A1, “4-aminopicolinates and their use as herbicides” (priority 2000, published 2001).

Like-named read-outs stand apart in the source and are kept apart here.

In the case of `Nc1cc(Cl)nc(C(=O)O)c1Cl` [Compound 1, 4-Amino-3,6-dichloropyridine-2-carboxylic acid], in assay [1], the “post emergent evaluation - % control ORYZA” value is reported as 10%. Moreover, the inhibition at 125 ppm amounted to 70% in assay [2] (read-out: PO[…] % CONTROL ABUTH); 50% in assay [3] (read-out: PO[…] % CONTROL SORBI, Table 2, rate 125 ppm, after 2 weeks, read-out: POSTMERGENCE HERBICIDAL ACTIVITY % CONTROL SORBI); 100% in assay [4] (read-out: PO[…] % CONTROL CHEAL); 50% in assay [5] (read-out: PO[…] % CONTROL AVEFA, Table 2, rate 125 ppm, after 2 weeks, read-out: POSTMERGENCE HERBICIDAL ACTIVITY % CONTROL AVEFA); 60% in assay [6] (read-out: PO[…] % CONTROL DIGSA, Table 2, rate 125 ppm, after 2 weeks, read-out: POSTMERGENCE HERBICIDAL ACTIVITY % CONTROL DIGSA); 95% in assay [7] (read-out: PO[…] % CONTROL AMARE). The inhibition at 125 ppm was 50% in assay [8] (read-out: PO[…] % CONTROL ALOMY, Table 2, rate 125 ppm, after 2 weeks, read-out: POSTMERGENCE HERBICIDAL ACTIVITY % CONTROL ALOMY); 45% in assay [9] (read-out: PO[…] % CONTROL ECHCG); 75% in assay [10] (read-out: PO[…] % CONTROL SETFA, Table 2, rate 125 ppm, after 2 weeks, read-out: POSTMERGENCE HERBICIDAL ACTIVITY % CONTROL SETFA); 80% in assay [11] (read-out: PO[…] % CONTROL VIOTR, Table 2, rate 125 ppm, after 2 weeks, read-out: POSTMERGENCE HERBICIDAL ACTIVITY % CONTROL VIOTR). Besides, the “post emergent evaluation - % control ECHCG” value in assay [9] stood at 75%.

In the case of `COC(=O)c1nc(Cl)cc(N)c1Cl` [Compound 3, methyl 4-amino-3,6-dichloropyridine-2-carboxylate], in assay [12], the “GR20 TRFRE” value was less than 17.5 g/ha.

As for `CCOC(=O)c1nc(Cl)cc(N)c1Cl` [Compound 4, ethyl 4-amino-3,6-dichloropyridine-2-carboxylate], the “GR20 TRFRE” value in assay [12] was less than 17.5 g/ha. In addition, the inhibition at 125 ppm in assay [2] was 70%; in [3] (setting [13]) it was 40%; in assay [4], 100%; in assay [5] (setting [14]), 40%; in assay [6] (setting [15]), 70%; in [7], 100%. The inhibition at 125 ppm was 40% in assay [8] (setting [16]), 50% in assay [9], 75% in assay [10] (setting [17]) and 70% in assay [11] (setting [18]).

Take `Nc1cc(Br)nc(C(=O)O)c1Cl` [Compound 14, 4-Amino-6-bromo-3-chloropyridine-2-carboxylic acid]: in [1], the “post emergent evaluation - % control ORYZA” value came out at 10%. Besides, the inhibition at 125 ppm in assay [2] came out at 85%; in assay [3] (setting [13]), 60%; in assay [4], 95%; in [5] (setting [14]) it was 40%; in [6] (setting [15]), 65%; in assay [7], 90%. In addition, the inhibition at 125 ppm amounted to 50% in [8] (setting [16]), 65% in assay [9], 65% in assay [10] (setting [17]) and 75% in [11] (setting [18]). Besides, the “Post-emergent Evaluation - % control CHEAL” value in [4] (Table 5, rate 250 ppm) is given as 70%. Moreover, in [9], the “post emergent evaluation - % control ECHCG” value was 65%.

Regarding `Nc1c(F)c(Cl)nc(C(=O)O)c1Cl` [Compound 19, 4-Amino-3,6-dichloro-5-fluoropyridine-2-carboxylic acid], the inhibition at 125 ppm came out at 50% in assay [2]; 10% in [3] (setting [13]); 95% in [4]; 20% in [5] (setting [14]); 30% in [6] (setting [15]); 60% in assay [7]. For the same molecule, the inhibition at 125 ppm worked out at 20% in assay [8] (setting [16]), 10% in [9], 20% in assay [10] (setting [17]) and 50% in [11] (setting [18]).
